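Five compound concentrations were applied to cells in 96-well plates for 48 hours; endpoints were derived by simple linear interpolation of the resulting dose-response curve. GI50: concentration for 50% inhibition of growth.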 The source made the active and inactive calls. Cut-off read from the data, not from the text of the source: active = GI50 up to about 1.1 µM and inactive = higher. Where a SMILES comes first, the peptide text is derived from it. [ ]: non-standard residue; d: D form. Hiv = CC(C)[C@H](O)C(=O)O A value given as a limit tells only on which side of the number the result lay.

Holding throughout (test): NCI anticancer screen, dose series, 48 h
The subject of assay [1] is A549.
For assay [2], the system named is COLO 205.
Assay [3] concerns DU-145.
Assay [4] relates to HCC 2998.
The subject of assay [5] is IGROV-1.
For assay [6], the system named is NCI-H460.
Assay [7] relates to NCI/ADR-RES.
In assay [8] the test system is OVCAR-4.
In assay [9] the test system is OVCAR-5.
Assay [10] concerns RXF 393.
Assay [11] relates to SF-295.
Assay [12] has as its system SF-539.
For assay [13], the system named is SK-MEL-2.
For assay [14], the system named is SK-OV-3.
Assay [15] relates to SN12C.
Assay [16] relates to SR.
For assay [17], the system named is TK-10.
Assay [18] deals with U-251.
For assay [19], the system named is UACC-257.
Assay [20] concerns NCI-H522.

Regarding `CN(C)c1ncc(-c2c[nH]c3ccccc23)nc1-c1c[nH]c2ccccc12`, the GI50 in [1] was 3.33 µM (inactive); in [2], 2.3 µM (inactive); in [3] it was 7.28 µM (inactive); in [4], 1.67 µM (inactive); in assay [5] it was 3.24 µM (inactive); in [6], 2.12 µM (inactive). Also, the GI50 in [7] is 9.95 µM (inactive); in [8], 5.32 µM (inactive); in assay [9], 4.68 µM (inactive); in assay [10] it was 1.96 µM (inactive); in [11], 2.33 µM (inactive); in assay [12] it was 4.21 µM (inactive). The GI50 in assay [13] is 3.83 µM (inactive); in assay [14] it was 7.66 µM (inactive); in assay [15] it was 2.88 µM (inactive); in [16], 3.24 µM (inactive); in [17], 8.59 µM (inactive); in [18], 3.37 µM (inactive). Besides, the GI50 in [19] was 1.9 µM (inactive).

`CCCC(=O)OC1CC(n2cc(F)c(=O)[nH]c2=O)OC1COP(=O)(OCC(Cl)(Cl)Cl)OCC(Cl)(Cl)Cl` (stereo not drawn): the GI50 is 0.461 µM (active) in assay [1]; 0.0614 µM (active) in assay [2]; 0.938 µM (active) in [3]; < 0.01 µM (active) in assay [4]; 14.8 µM (inactive) in assay [5]; 0.0351 µM (active) in [6]. The GI50 was 5.51 µM (inactive) in [20]; 1.17 µM (inactive) in assay [7]; 16.9 µM (inactive) in assay [8]; 28.4 µM (inactive) in [9]; 0.167 µM (active) in [11]; > 59.4 µM (inactive) in [13]. Moreover, the GI50 in assay [14] was 12.4 µM (inactive); in [15] it was 22 µM (inactive); in assay [16] it was 1.25 µM (inactive); in [17] it was 22.5 µM (inactive); in assay [18] it was 4.02 µM (inactive); in assay [19], 21.7 µM (inactive).

`S=c1[nH]n2c(CCCCCCCCc3nnc4sc(=S)[nH]n34)nnc2s1`: the GI50 in [1], in assay [2], in assay [3], in assay [4], in [5] and in assay [6] was > 100 µM (inactive) in each case. The GI50 in assay [20], in [7], in assay [8], in assay [9], in assay [11] and in assay [12] was > 100 µM (inactive) in each case. The GI50 in assay [13], in assay [14], in assay [15], in assay [16], in [18] and in assay [19] was > 100 µM (inactive) in each case.

In the case of `O=[N+]([O-])c1nccn1CCCNCCCn1ccnc1[N+](=O)[O-]`, the GI50 in assay [1], in assay [2], in assay [3], in assay [5], in assay [6] and in [20] was > 100 µM (inactive) each time. Moreover, the GI50 in [7], in assay [8], in [9], in [10], in assay [11] and in assay [12] was > 100 µM (inactive) throughout. Also, the GI50 in [13], in assay [14], in assay [15], in [16], in [17] and in assay [18] was > 100 µM (inactive) throughout. Moreover, in assay [19], the GI50 was > 100 µM (inactive).

Take `CCN1CN(c2ccccc2)C2(CCN(CC3COc4ccccc4O3)CC2)C1=O` (stereo not drawn): the GI50 was 36.6 µM (inactive) in assay [1]; 15.7 µM (inactive) in assay [2]; 36.6 µM (inactive) in assay [3]; 53.7 µM (inactive) in assay [5]; 18.2 µM (inactive) in [6]; 18 µM (inactive) in assay [20]. For the same molecule, the GI50 in assay [7] was 37.2 µM (inactive); in assay [9] it was 24.3 µM (inactive); in assay [10], 15.5 µM (inactive); in assay [11], 39.9 µM (inactive); in assay [12], 18.6 µM (inactive); in assay [13], 13.2 µM (inactive). Further, the GI50 in [14] was 28.6 µM (inactive); in assay [15], 41.5 µM (inactive); in assay [16], 5.13 µM (inactive); in assay [17], 25.8 µM (inactive); in assay [18], 30.6 µM (inactive); in [19], 35.3 µM (inactive).

Regarding `Clc1nc(Cl)c(-c2ccccc2)c(Cl)n1`, the GI50 in assay [1] is 17.1 µM (inactive); in [2] it was 1.84 µM (inactive); in assay [3] it was 13.5 µM (inactive); in assay [5], 4.92 µM (inactive); in [6] it was 13.4 µM (inactive); in assay [20] it was 1.55 µM (inactive). Besides, the GI50 in assay [7] was 3.42 µM (inactive); in assay [8], 2.51 µM (inactive); in [9], 4.61 µM (inactive); in [10], 2.18 µM (inactive); in [11], 12.7 µM (inactive); in assay [12], 5.42 µM (inactive). The GI50 in [14] was 11.2 µM (inactive); in [15], 3.14 µM (inactive); in assay [16], 2.48 µM (inactive); in assay [17], 10.1 µM (inactive); in [18] it was 5.32 µM (inactive); in assay [19], 2.82 µM (inactive).

Regarding `COc1cc(C2S/C(=C/c3ccccc3)C(=O)N2c2cccc(Cl)c2)cc(OC)c1OC` (stereo not drawn), the GI50 is 78.3 µM (inactive) in assay [1]; > 100 µM (inactive) in [2]; 23.1 µM (inactive) in assay [3]; 46.1 µM (inactive) in [4]; 56.9 µM (inactive) in [5]; 34.4 µM (inactive) in assay [6]. In addition, the GI50 in [20] is 18.2 µM (inactive); in assay [7] it was 34.5 µM (inactive); in assay [8], 29.8 µM (inactive); in assay [9] it was > 100 µM (inactive); in [11] it was 33.7 µM (inactive); in assay [12] it was 31 µM (inactive). Moreover, the GI50 in [13] was 62.7 µM (inactive); in assay [14], > 100 µM (inactive); in assay [15], 55.2 µM (inactive); in [16], 19.4 µM (inactive); in [17] it was > 100 µM (inactive); in [18], 57.7 µM (inactive). Also, in assay [19], the GI50 is 23.6 µM (inactive).

As for `Cc1ncc([N+](=O)[O-])n1CCNC(=O)Cn1c([N+](=O)[O-])cnc1C`, the GI50 in assay [1] is > 100 µM (inactive); in assay [2], > 100 µM (inactive); in [3], 92.5 µM (inactive); in assay [4] it was > 100 µM (inactive); in assay [5] it was > 100 µM (inactive); in assay [6], > 100 µM (inactive). Further, the GI50 in assay [20], in assay [7], in assay [9], in assay [11], in assay [12] and in [13] was > 100 µM (inactive) in each case. Moreover, the GI50 in assay [14], in assay [15], in [16], in [17], in [18] and in assay [19] was > 100 µM (inactive) throughout.

For `N#CCC1(c2ccc(Cl)cc2)NC(=O)c2ccccc21` (stereo not drawn), the GI50 in assay [1], in assay [2], in assay [3], in [5], in [6] and in [20] was > 100 µM (inactive) throughout. The GI50 in assay [7], in [8], in [9], in [10], in [11] and in [12] was > 100 µM (inactive) each time. For the same molecule, the GI50 in [13] was > 100 µM (inactive); in assay [14], > 100 µM (inactive); in assay [15] it was > 100 µM (inactive); in [16], > 100 µM (inactive); in assay [17] it was 96.2 µM (inactive); in assay [18], > 100 µM (inactive). In addition, the GI50 in assay [19] is > 100 µM (inactive).

For `COc1cccc(/C=C/c2cnc3ccccc3n2)c1OC`, the GI50 in assay [1] is 40.7 µM (inactive); in [2] it was 48.3 µM (inactive); in assay [3], 60.7 µM (inactive); in assay [5], 39.1 µM (inactive); in [6] it was 24.8 µM (inactive); in [20], 17 µM (inactive). In addition, the GI50 in assay [7] was 18.5 µM (inactive); in [8] it was 25.6 µM (inactive); in assay [9] it was 72.6 µM (inactive); in assay [10], 21.8 µM (inactive); in assay [11], 46.1 µM (inactive); in assay [12], 45.7 µM (inactive). Besides, the GI50 in assay [13] is 28.8 µM (inactive); in [14], 71.6 µM (inactive); in assay [15] it was 39.5 µM (inactive); in assay [16], > 100 µM (inactive); in assay [17] it was 50.5 µM (inactive); in assay [18] it was 39.3 µM (inactive). Further, the GI50 in assay [19] is 37.4 µM (inactive).

Consider `CC(C)[C@@H]1OC(=O)[C@@H](C)NC(=O)[C@@H]2CCCN2C1=O` (cyclo([Hiv]-Pro-[dA])), for which the GI50 in assay [1], in assay [2], in [3], in [4], in assay [5] and in assay [6] was > 100 µM (inactive) in each case. The GI50 in assay [7], in assay [8], in assay [9], in [10], in [11] and in assay [12] was > 100 µM (inactive) each time. Also, the GI50 in assay [13], in [14], in [15], in assay [16], in assay [17] and in [19] was > 100 µM (inactive) throughout.

The values are drawn from ChEMBL document CHEMBL1201862, “PubChem BioAssay data set” (2004).
